Assay results as given in US20180022711A1, “NOVEL CRYSTAL FORMS OF THE MONOSODIUM SALT OF FORAMSULFURON” (BAYER CROPSCIENCE AKTIENGESELLSCHAFT, priority 2014, published 2018).
“Also recorded” adds a separate entry of the source.

What was measured:
Format in all cases: physicochemical
[1] = Hygroscopicity: open storage over water for one week at 25° C., water content by Karl Fischer titration; details: for Water content of the sample after storage: one week at 25° C. in sealed beaker over water, Karl Fischer titration
Method: 100 mg each of crystal forms A, B and C were separately filled into small glass vials with snap-on caps. These three glass vials with snap-on caps were placed unsealed in a glass beaker of which the bottom was covered with a small amount of water. The glass beaker was then sealed with a reversible sealing film and stored for one week at 25° C. After this storage period, the water content of the respective sample was determined by Karl Fischer titration.

[2] = Storage of methanol-moist crystal form A and conversion into crystal form C
Method: In separate containers, 5 g each of crystal form A were each stirred with 20 g of MeOH and subsequently filtered off.
At 20° C., 30° C. and 35° C., the moistened products were stored for one week and a sample taken daily. These samples were dried at 65° C. and 100 mbar and the respective methanol content subsequently determined.
Already after 2 days (35° C.), 3 days (30° C.) and 7 days (20° C.), crystal form A had converted practically completely into crystal form C (MeOH content about 6.4% by weight).

[3] = Sorption/desorption curve, isothermal at 25° C.; details: for Desorption (% by weight) / Sorption (% by weight): 25° C.
Method: Sorption and desorption curves of crystal form B were measured isothermically at 25° C. The sorption curve gives the water uptake at increasing relative humidity and the desorption curve gives the drying behaviour on moisture reduction.

[4] = Stability test of crystal form B in methanol; details: suspended in methanol, stirred 7 days at 30° C., filtered and dried
Method: 10 g of crystal form B (MeOH content<0.01%) were suspended in 100 g of methanol and stirred for 7 days at 30° C. The product was filtered and then dried overnight at 70° C. and a pressure<100 mbar. 9.1 g of a 99.4% strength product were obtained. The methanol content in the product obtained was 0.004% by weight and the acetone content was 0.0003% by weight.

COc1cc(OC)nc(NC(=O)NS(=O)(=O)c2cc(NC=O)ccc2C(=O)N(C)C)n1.[Na] [Crystal form A, reference compound]
Water content of the sample after storage ([1]; listed as crystal form A): 15.7 % by weight
Appearance of the sample after storage ([1]; one week at 25° C. over water): very ductile and sticky
Hygroscopicity (in words) ([1]; one week at 25° C. over water): hygroscopic
Time until practically complete conversion into crystal form C ([2]; stored at 20° C.): 7 days
Time until practically complete conversion into crystal form C ([2]; stored at 30° C.): 3 days
Time until practically complete conversion into crystal form C ([2]; stored at 35° C.): 2 days

COc1cc(OC)nc(NC(=O)[N-]S(=O)(=O)c2cc(NC=O)ccc2C(=O)N(C)C)n1.[Na+] [Crystal form B, monosodium salt of foramsulfuron]
Hygroscopicity (in words) ([3]; conclusion from sorption/desorption at 25° C.): not hygroscopic; also recorded: non-hygroscopic
Desorption (% by weight) ([3]; relative humidity 10.0%): 0.846 % by weight
Sorption (% by weight) ([3]; relative humidity 10.0%): 0.100 % by weight
Desorption (% by weight) ([3]; relative humidity 20.0%): 1.227 % by weight
Sorption (% by weight) ([3]; relative humidity 20.0%): 0.201 % by weight
Desorption (% by weight) ([3]; relative humidity 30.0%): 1.495 % by weight
Sorption (% by weight) ([3]; relative humidity 30.0%): 0.313 % by weight
Desorption (% by weight) ([3]; relative humidity 40.0%): 1.760 % by weight
Sorption (% by weight) ([3]; relative humidity 40.0%): 0.444 % by weight
Desorption (% by weight) ([3]; relative humidity 50.0%): 2.086 % by weight
Sorption (% by weight) ([3]; relative humidity 50.0%): 0.566 % by weight
Desorption (% by weight) ([3]; relative humidity 60.0%): 2.269 % by weight
Sorption (% by weight) ([3]; relative humidity 60.0%): 0.684 % by weight
Desorption (% by weight) ([3]; relative humidity 70.0%): 2.485 % by weight
Sorption (% by weight) ([3]; relative humidity 70.0%): 0.864 % by weight
Desorption (% by weight) ([3]; relative humidity 80.0%): 3.016 % by weight
Sorption (% by weight) ([3]; relative humidity 80.0%): 1.085 % by weight
Desorption (% by weight) ([3]; relative humidity 90.0%): 5.151 % by weight
Sorption (% by weight) ([3]; relative humidity 90.0%): 2.335 % by weight
Water content of the sample after storage [1]: 0.4 % by weight
Appearance of the sample after storage ([1]; one week at 25° C. over water): still crystalline and powdery
Methanol content in the product obtained [4]: 0.004 % by weight

COc1cc(OC)nc(NC(=O)NS(=O)(=O)c2cc(NC=O)ccc2C(=O)N(C)C)n1.[Na] [Crystal form C]
Water content of the sample after storage ([1]; listed as crystal form C): 21.3 % by weight
